Laboratory results taken from PMC10607876, “Phenylacetyl-/Trolox- Amides: Synthesis, Sigma-1, HDAC-6, and Antioxidant Activities” (International Journal of Molecular Sciences, 2023).
Values joined by “and” are separate entries in the source; they are usually repeats but may differ in a detail not shown here. Identical values can stand only once.

Tests used:
σ-2 = molecular target: T1, σ-2 (Rattus norvegicus, UniProt Q5U3Y7); assay: Sigma-2 competitive radioligand displacement binding (NIMH PDSP)
T1 sequence (Q5U3Y7 1-176): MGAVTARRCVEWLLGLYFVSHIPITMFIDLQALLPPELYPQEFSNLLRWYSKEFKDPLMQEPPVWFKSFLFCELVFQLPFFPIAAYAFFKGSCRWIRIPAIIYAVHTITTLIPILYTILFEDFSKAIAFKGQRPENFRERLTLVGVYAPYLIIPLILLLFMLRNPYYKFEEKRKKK
Protocol: Sigma-1 and 2 affinity experiments (Ki values) were carried out at the National Institute of Mental Health’s Psychoactive Drug Screening Program (NIMH PDSP, UNC Chapel Hill, NC). Assay details (i.e., competitive radioligand displacement conditions, etc.) are available at https://pdsp.unc.edu/pdspweb/content/PDSP%20Protocols%20II%202013-03-28.pdf (accessed on 23 August 2023). Table 2 below indicates the Ki values determined for all compounds.

[1] = Oxygen Radical Activity Capacity (ORAC) assay; settings: for antioxidant activities (in words): ORAC; for Slopes: slope of net AUC vs concentration (2.5-50 µM), averaged, n = 3 runs, 60 min; for TEs (Trolox equivalents): slope of sample divided by slope of Trolox, ORAC after 60 min, mean ± SD, n = 3
Protocol: Compound antioxidant capacities were determined using the Oxygen Radical Activity Capacity (ORAC) Assay Kit (catalog #ab233473, Abcam, Cambridge, MA, USA) according to the manufacturer’s protocol. Briefly, the Trolox standard (0.2 mM, 50:50 v/v, water: acetone) and each test compound (0.2 mM, 50:50 v/v, water: acetone) were tested at final concentrations ranging from 2.5 µM to 50 µM in the assay. Fluorescein (150 μL) probe solution and 25 μL of Trolox or each test compound were mixed in each well of a black 96-well microplate and incubated at 37 °C for 30 min. […] Trolox equivalents (TE) for the test compounds were obtained by directly dividing the slopes of each sample by the slope of the Trolox from its standard curve (Table 4). […] Curiously, unlike the phenolic Trolox derivatives (i.e., 3, 4, 8, 12, and 20), compound 18′s antioxidant activity can be attributed to the -NH-OH moiety.

HDAC-6 = molecular target: T2, HDAC-6 (Homo sapiens, UniProt Q9UBN7); assay: HDAC fluorescence activity assay (Reaction Biology, Howitz conditions); settings: HDAC-6 IC50, fluorogenic acetylated lysine substrate, 10-dose IC50 mode, threefold serial dilutions
T2 sequence (Q9UBN7 1-1215): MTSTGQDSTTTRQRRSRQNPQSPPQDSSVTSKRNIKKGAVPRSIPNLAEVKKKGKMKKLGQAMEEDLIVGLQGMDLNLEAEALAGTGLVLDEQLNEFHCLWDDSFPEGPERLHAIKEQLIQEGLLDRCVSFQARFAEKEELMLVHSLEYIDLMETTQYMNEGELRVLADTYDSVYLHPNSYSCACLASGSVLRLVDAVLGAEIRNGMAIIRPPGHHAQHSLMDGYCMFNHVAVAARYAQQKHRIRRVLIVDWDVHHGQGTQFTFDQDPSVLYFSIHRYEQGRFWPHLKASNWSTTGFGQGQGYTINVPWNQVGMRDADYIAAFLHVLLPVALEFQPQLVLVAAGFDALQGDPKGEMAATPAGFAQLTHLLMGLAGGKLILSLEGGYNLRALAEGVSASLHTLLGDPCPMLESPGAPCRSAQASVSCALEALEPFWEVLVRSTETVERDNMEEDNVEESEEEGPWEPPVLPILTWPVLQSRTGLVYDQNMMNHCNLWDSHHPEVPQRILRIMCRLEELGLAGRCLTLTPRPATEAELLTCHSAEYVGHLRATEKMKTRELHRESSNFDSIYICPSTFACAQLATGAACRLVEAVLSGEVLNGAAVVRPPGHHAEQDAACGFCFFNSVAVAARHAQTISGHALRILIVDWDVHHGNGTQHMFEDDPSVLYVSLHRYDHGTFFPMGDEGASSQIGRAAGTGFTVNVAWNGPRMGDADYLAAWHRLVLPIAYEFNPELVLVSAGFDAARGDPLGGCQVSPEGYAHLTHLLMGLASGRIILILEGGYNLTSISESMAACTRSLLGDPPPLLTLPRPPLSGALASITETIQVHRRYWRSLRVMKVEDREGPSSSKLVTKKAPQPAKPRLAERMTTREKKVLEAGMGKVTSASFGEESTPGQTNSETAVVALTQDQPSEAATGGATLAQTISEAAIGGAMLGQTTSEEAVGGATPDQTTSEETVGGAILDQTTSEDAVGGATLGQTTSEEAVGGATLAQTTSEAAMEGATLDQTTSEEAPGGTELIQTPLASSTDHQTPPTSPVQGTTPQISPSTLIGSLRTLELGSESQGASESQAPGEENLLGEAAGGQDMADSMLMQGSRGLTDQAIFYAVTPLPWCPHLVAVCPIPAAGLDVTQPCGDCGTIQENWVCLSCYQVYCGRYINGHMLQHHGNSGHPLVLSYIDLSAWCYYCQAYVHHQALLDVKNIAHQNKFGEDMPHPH

Row | SMILES | Ki (σ-2) [µM] | IC50 (HDAC-6) | antioxidant activities (in words) [1] | Slopes [1] | TEs (Trolox equivalents) [1]
1 | COC(=O)c1ccc(CNC(=O)Cc2ccccc2)cc1 [Compound 1, Methyl 4-((2-phenylacetamido)methyl) benzoate] | > 10 |  |  |  | 
2 | Cc1c(C)c2c(c(C)c1O)CCC(C)(C(=O)NCc1ccc(S(N)(=O)=O)cc1)O2 (stereo not shown) [Compound 4, 6-Hydroxy-2,5,7,8-tetramethyl-N-(4-sulfamoylbenzyl) chromane-2-carboxamide] | > 10 |  | potent | 155.07 ± 2.39 | 1.28 ± 0.02 TE
3 | NNC(=O)c1ccc(CNC(=O)Cc2ccccc2)cc1 [Compound 5, N-(4-(Hydrazinecarbonyl)benzyl)-2-phenylacetamide] | > 10 |  |  |  | 
4 | Cc1c(C)c2c(c(C)c1O)CCC(C)(C(=O)NCc1ccc(C(=O)NO)cc1)O2 (stereo not shown) [Compound 8, 6-Hydroxy-N-(4-(hydroxycarbamoyl)benzyl)-2,5,7,8-tetramethylchromane-2-carboxamide] | > 10 | 0.017 µM and 0.0173 µM | potent | 232.42 ± 8.98 | 1.92 TE and 1.92 ± 0.07 TE
5 | Cc1c(C)c2c(c(C)c1O)CCC(C)(C(=O)NCc1ccc(C(=O)NN)cc1)O2 (stereo not shown) [Compound 9, N-(4-(Hydrazinecarbonyl)benzyl)-6-hydroxy-2,5,7,8-tetramethylchromane-2-carboxamide] | > 10 |  |  |  | 
6 | Cc1c(C)c2c(c(C)c1O)CCC(C)(C(=O)N1CCN(c3ncccn3)CC1)O2 (stereo not shown) [Compound 14, (6-Hydroxy-2,5,7,8-tetramethylchroman-2-yl)(4-(pyrimidin-2-yl)piperazin-1-yl)methanone] | 2.49 |  |  |  | 
7 | NS(=O)(=O)c1ccc(CNC(=O)Cc2ccccc2)cc1 [Compound 16, 2-Phenyl-N-(4-sulfamoylbenzyl) acetamide] | > 10 |  |  |  | 
8 | O=C(Cc1ccccc1)NCc1ccc(C(=O)NO)cc1 [Compound 18, N-Hydroxy-4-((2-phenylacetamido)methyl)benzamide] |  | 0.077 µM and 0.0779 µM | potent | 137.45 ± 1.88 | 1.13 ± 0.02 TE
9 | Cc1c(C)c2c(c(C)c1O)CCC(C)(C(=O)NNC(=O)c1ccc(Cl)cc1)O2 (stereo not shown) [Compound 20, N′-(4-Chlorobenzoyl)-6-hydroxy-2,5,7,8-tetramethylchromane-2-carbohydrazide] |  |  | potent | 177.86 ± 3.38 | 1.47 ± 0.03 TE
10 | Cc1c(C)c2c(c(C)c1O)CCC(C)(C(=O)O)O2 (stereo not shown) [Trolox, 6-hydroxy-2,5,7,8-tetramethylchroman-2-carboxylic acid] |  |  |  |  | 1.0 TE

More lines, main results first:

Row | Ki (σ-2) [µM] | IC50 (HDAC-6) | SMILES | antioxidant activities (in words) [1] | Slopes [1] | TEs (Trolox equivalents) [1]
11 | 7.47 |  | COC(=O)c1ccc(CNC(=O)C2(C)CCc3c(C)c(O)c(C)c(C)c3O2)cc1 (stereo not shown) [Compound 2, Methyl 4-((6-hydroxy-2,5,7,8-tetramethylchromane-2-carboxamido)methyl)benzoate] |  |  | 
12 | > 10 |  | Cc1c(C)c2c(c(C)c1O)CCC(C)(C(=O)Nc1nc3ccccc3o1)O2 (stereo not shown) [Compound 3, N-(Benzo[d]oxazol-2-yl)-6-hydroxy-2,5,7,8-tetramethylchromane-2-carboxamide] | potent | 205.61 ± 4.38 | 1.70 ± 0.04 TE
13 | 7.49 |  | Cc1c(C)c2c(c(C)c1O)CCC(C)(C(=O)Nc1nc3ccccc3[nH]1)O2 (stereo not shown) [Compound 6, N-(1H-benzo[d]imidazol-2-yl)-6-hydroxy-2,5,7,8-tetramethylchromane-2-carboxamide] |  |  | 
14 | 1.5 |  | Cc1c(C)c2c(c(C)c1O)CCC(C)(C(=O)Nc1cc3ccccc3cn1)O2 (stereo not shown) [Compound 7, 6-Hydroxy-N-(isoquinolin-3-yl)-2,5,7,8-tetramethylchromane-2-carboxamide] |  |  | 
15 | 5.59 |  | Cc1c(C)c2c(c(C)c1O)CCC(C)(C(=O)Nc1cnccn1)O2 (stereo not shown) [Compound 10, 6-Hydroxy-2,5,7,8-tetramethyl-N-(pyrazin-2-yl) chromane-2-carboxamide] |  |  | 
16 | > 10 |  | Cc1nc(NC(=O)C2(C)CCc3c(C)c(O)c(C)c(C)c3O2)sc1C (stereo not shown) [Compound 11, N-(4,5-Dimethylthiazol-2-yl)-6-hydroxy-2,5,7,8-tetramethylchromane-2-carboxamide] |  |  | 
17 | > 10 |  | Cc1c(C)c2c(c(C)c1O)CCC(C)(C(=O)Nc1ncc[nH]1)O2 (stereo not shown) [Compound 12, 6-Hydroxy-N-(1H-imidazol-2-yl)-2,5,7,8-tetramethylchromane-2-carboxamide] | potent | 151.24 ± 0.30 | 1.25 ± 0.002 TE
18 | 6.86 |  | Cc1cc(NC(=O)C2(C)CCc3c(C)c(O)c(C)c(C)c3O2)no1 (stereo not shown) [Compound 13, 6-Hydroxy-2,5,7,8-tetramethyl-N-(5-methylisoxazol-3-yl)chromane-2-carboxamide] |  |  | 
19 | 6.98 |  | Cc1c(C)c2c(c(C)c1O)CCC(C)(C(=O)NCc1ccc3c(c1)OCO3)O2 (stereo not shown) [Compound 15, N-(Benzo[d][1,3]dioxol-5-ylmethyl)-6-hydroxy-2,5,7,8-tetramethylchromane-2-carboxamide] |  |  | 
